This is an account of results in patent US20220040255A1, “CHEMOTHERAPEUTIC REMODELING OF THE GUT MICROBIOME” (THE SCRIPPS RESEARCH INSTITUTE, priority 2018, published 2022).

Structures are written as SMILES. Where a SMILES comes first, the peptide text is derived from it. [ ]: non-standard residue; d: D form. Where only a bound is given, the exact number is not on record here.

The nature of this series: Pharmacokinetics of c[wLwReQeR] via different routes of administration. The series is classed as in vivo, mice. The protocol:
Pharmacokinetics. These experiments were carried out in part courtesy of Carol S. Ryan, Debra J. Search, Ricardo A. Garcia, and David A. Gordon at Bristol Myers Squibb (Hopewell, N.J., USA). Male Balb/C or C57BL/6 mice (20 g) were maintained on a chow diet. The cyclic peptide c[wLwReQeR] (SEQ ID NO:11) was dissolved in PBS containing 1% sucrose or 95% 50 mM acetate buffer containing 10% sucrose, 5% DMSO (pH=4), and sterile filtered through a 0.22-μm syringe filter before injection. Mice were fasted beginning 12 h before dosing, and continued the fast until after the 8-h time point blood draw was completed. Groups of three mice received a dose of the cyclic peptide via […] (5 mL/kg for subcutaneous and intraperitoneal, 10 mL/kg for oral gavage). Blood was drawn (30-60 μL) from the retro-orbital sinus into a heparinized capillary tube before dosing (0 min) and at different intervals from 30 min to 8 h after dosing. Plasma was isolated immediately from the whole blood by centrifugation at 5,000 rpm for 10 min at 4° C. Immediately after the plasma was isolated, 20 μL of plasma was acidified with 20 μL of 5% TFA to break peptide-protein interactions, and 40 μL of acetonitrile was then added. After vortexing for 30 s, the mixture was centrifuged at 13,000 rpm for 10 min at 4° C. The resultant supernatant was analyzed by using LC-MS SIM as described below.
LC-MS SIM quantitation of peptide concentration. Cyclic peptide concentrations were quantified by using reverse-phase HPLC coupled with mass spectrometry. The electrospray ionization mass spectrometry measurements were carried out in the positive ionization mode using a single quadrupole mass spectrometer (Hewlett Packard HP 1100 MSD series). 10 or 20 μL of sample were injected through a C8 reverse-phase column (Zorbax 300-SB, 4.6 mm×150 mm, 5 μm) using a flow rate of 1.5 mL/min and binary gradients of solvent A (99% H2O, 0.1% formic acid, 0.01% TFA) and solvent B (99% acetonitrile, 0.1% formic acid, 0.01% TFA). Mass detection was carried out in the selected ion monitoring (SIM) mode for the positive molecular ion, with the optimized fragmentor and capillary voltages of 180 V and 5 kV, respectively. The selected monitoring mass for cyclic peptide c[wLwReQeR] (SEQ ID NO:11) was 592.8 ([M+2H]^2+). For quantitative calibration, standard curves were established using mouse EDTA-anticoagulated plasma spiked with various concentrations of the peptide. The calibration curve was established by using linear fitting of the data, with correlation coefficient ≥0.98.

Regarding `CC(C)C[C@@H]1NC(=O)[C@@H](Cc2c[nH]c3ccccc23)NC(=O)[C@H](CCCNC(=N)N)NC(=O)[C@@H](CCC(=O)O)NC(=O)[C@H](CCC(N)=O)NC(=O)[C@@H](CCC(=O)O)NC(=O)[C@H](CCCNC(=N)N)NC(=O)[C@@H](Cc2c[nH]c3ccccc23)NC1=O` [c[wLwReQeR]] (cyclo([dW]L[dW]R[dE]Q[dE]R)), where the note is “male, C57BL/6, mouse, plasma, oral gavage, 15 mg/kg, C57B1/6”, the time of peak concentration (Tmax) is less than 3 h. In addition, where the note is “male, C57BL/6, mouse, plasma, oral gavage, 15 mg/kg, C57B1/6, read-out: AUC 0-24 h”, the AUC(0-t) was less than 3 nM·h. Besides, the Cmax (male, mouse, plasma, ip, 16-mg/kg i.p., BALB/c mice, read-out: peak plasma concentration) came out at 13 µM. In addition, where the note is “oral gavage, limit of detection=3 nM”, the “peptide in plasma after oral gavage” value is given as “not detectable”.
